What all share (assay type): cell-based, human
Test [1] relates to HAP1 cells. The test can be described thus: DSBR-seq of a Cas9 break at the AAVS1 locus, HAP1 cells. The text has this: (§1) In this Example, transfection of the pX330 plasmid, containing the Cas9 and guide RNA (gRNA) expression cassettes to the AAVS1 safe locus, is used. Genomic DNA (gDNA) is collected 3 days post-transfection. To asses—DNA repair by HR, a donor template containing three substitutions around the protospacer adjacent motif (PAM) which limits cut-recut cycles is transfected also. A 500 bp amplicon surrounding the break is used for rapid measurement of DSBR errors via the widely used T7 endonuclease I assay. A 201 bp amplicon surrounding the cut site, but outside of the HR template is amplified, purified via E-gel electrophoresis system, converted into Illumina sequencing libraries, quantified via qPCR, and then sequenced at 200,000× read depth using paired end 150 bp (PE150) Mi-Seq. Unique, nonsingleton reads (occurring more than once) are aligned to the reference sequence using pairwise alignment (for example using Python). The indels and substitutions are cataloged relative to the break site and microhomology (MH) is determined (for example using an internally developed and validated algorithm, see FIG. 8). The reads are categorized as consequences of NHEJ (≤5 bp deletion) or MMEJ (>5 bp deletion with >2 bp MH). The donor template DNA contains key substitutions—thereby providing a readout of HR. […] The PE150 reads are merged using PEAR and then condensed into a set of unique reads. […]

Test [2] deals with HEK293T cells. The test can be described thus: DSBR-seq of a Cas9 break at the AAVS1 locus, HEK293T cells. The source says:
In this Example, transfection of the pX330 plasmid, containing the Cas9 and guide RNA (gRNA) expression cassettes to the AAVS1 safe locus, is used. Genomic DNA (gDNA) is collected 3 days post-transfection. To asses—DNA repair by HR, a donor template containing three substitutions around the protospacer adjacent motif (PAM) which limits cut-recut cycles is transfected also. A 500 bp amplicon surrounding the break is used for rapid measurement of DSBR errors via the widely used T7 endonuclease I assay. A 201 bp amplicon surrounding the cut site, but outside of the HR template is amplified, purified via E-gel electrophoresis system, converted into Illumina sequencing libraries, quantified via qPCR, and then sequenced at 200,000× read depth using paired end 150 bp (PE150) Mi-Seq. Unique, nonsingleton reads (occurring more than once) are aligned to the reference sequence using pairwise alignment (for example using Python). The indels and substitutions are cataloged relative to the break site and microhomology (MH) is determined (for example using an internally developed and validated algorithm, see FIG. 8). The reads are categorized as consequences of NHEJ (≤5 bp deletion) or MMEJ (>5 bp deletion with >2 bp MH). The donor template DNA contains key substitutions—thereby providing a readout of HR. These experiments are also performed in cells that are isogenic knockout controls of key NHEJ, MMEJ and HR components and using pharmacologic controls in which DNA-PKcs, RAD51, and PARP are inhibited […]. By comparing the experimental reads against those obtained from the knockout controls and/or pharmacologic controls, the specific reads dependent on each pathway were discovered. (FIG. 1). Thus, these methods involve empirically-determined deletion profiles, derived from known controls deficient in each pathway, as signatures to clearly separate and quantify DSBR events occurring by HR, NHEJ and MMEJ. The single double strand break allows for direct analysis of pathway choice in a native genomic location with a blunt-ended DSB. Because both cell cycle dependent pathways (MMEJ and […]) are measured in the same experiment, there is an effective built-in control for confounding cell cycle effects on the use of these pathways. The AAVS1 genomic location was chosen due to its characterization as a safe site of integration without any known phenotypic effects. Transfection of the pX330 plasmid, containing the Cas9 and gRNA expression cassettes, is performed by nucleofection or liposome-based techniques. To detect DNA repair by homologous recombination (HR), a donor template is used containing three substitutions, one on the gRNA side of the break and two on the other side of the break, destroying the protospacer adjacent motif (PAM) and thereby limiting cut-recut cycles. A 500 bp amplicon surrounding the break is used for rapid measurement of DSBR errors via the widely used T7 endonuclease I assay. A 201 bp amplicon surrounding the cut site, but outside of the HR template is amplified, purified via E-gel electrophoresis system, converted into Illumina sequencing libraries, quantified via qPCR, and then sequenced at 200,000× read depth. Paired end 150 bp (PE150) reads are obtained, affording a central 100 bp region of high sequence fidelity adjacent to the cut site. The PE150 reads are merged using PEAR and then condensed into a set of unique reads. Unique reads that only occur once are discarded, as they are likely low-quality reads due to sequencing error. These unique, nonsingleton reads are aligned to the reference sequence using pairwise alignment through Python. The indels and substitutions are cataloged relative to the breaksite. […] The profile of deletion sizes and extent of microhomology differs between break sites, likely owing to site dependent availability of microhomology. We utilized the DNA-PKcs inhibitor NU7441 to measure NHEJ inhibition. […]

Test [3] deals with HCC1937 BRCA1 deficient cell line. The test can be described thus: DSBR-seq of a Cas9 break at the AAVS1 locus, HCC1937 BRCA1 deficient cells. Particulars: with or without inhibitor.
Source text: as §1

Molecules are shown by their SMILES.

As to `O=c1cc(N2CCOCC2)oc2c(-c3cccc4c3sc3ccccc34)cccc12` [NU7441], the “12 base pair deletion with 5 bp of microhomology read” value in test [1] (HAP1 cells) was “enhanced”. In addition, in test [2] (293T cells), the “12 base pair deletion with 5 bp of microhomology read” value is “enhanced” and the “specific 1 bp deletion read” value is given as “suppressed”. Further, in test [2] (FIG. 1I), the HR usage entry is recorded as “increases”, the MMEJ usage result is listed as “increases” and the NHEJ usage result was “suppresses”. Moreover, in test [2] (HEK293T cells, DSB at position 120 of amplicon), the “decrease of the amplitude of the deletion peak” value is given as “more than 90%”. The “frequency of HR (donor substitution) peaks” value in test [2] (HEK293T cells, donor template) is “increased in frequency”. Moreover, the “width of the deletion peak” value in test [2] (HEK293T cells, reflects use of MMEJ) is on record as “increases”. Also, the HR observed result in test [3] is “no HR is observed”.
Consider `CC(=O)c1c(C)c2cnc(Nc3ccc(N4CCNCC4)cn3)nc2n(C2CCCC2)c1=O` [palbociclib], for which, in test [1] (G1 arrest by the drug), the “increase of the frequency of introduced errors overall” value is recorded as about 4 fold.

(Values after patent US20210246505A1, “COMPOSITIONS & METHODS FOR MONITORING DNA REPAIR” (MEMORIAL SLOAN KETTERING CANCER CENTER, priority 2018, published 2021).)
